Assay [1] relates to shoot (rosette) of Arabidopsis seedlings. Briefly: Shoot growth, diameter of rosettes (Figure S1). It is filed as in vivo, Arabidopsis thaliana. The following applies: for Mean diff, A2 - B2, diameter of rosettes: two-way ANOVA output, by table order A = mock, B = peptide, row 2 = Day 4.
Assay [2] concerns root tip cells of Arabidopsis seedlings. Briefly: Root tip morphology, generation of root hairs. In kind it is in vivo, Arabidopsis thaliana. The following applies: peptide for 4 days, up to 500 nM, n = 20. As to the method:
(§1) Five-day-old seedlings were transferred from 1/2 MS medium to 1/2 MS medium supplemented with or without elicitor for four days. The transferred seedlings were photographed every day for a total of four days. The primary root length was measured using ImageJ software (V 1.8.0). After four days of elicitor treatment, the root tips of seedlings were observed by microscope and the fluorescence from root tip cells of GFP tag seedlings were excited with a 488 nm laser. Emission was detected between 495 and 550 nm. The images were acquired with an OLYMPUS FV10-MCPUS confocal laser scanning microscope. Images were processed using LSM image examiner software (FV10-ASW3.1) and Adobe Photoshop CS4 version 11.0.2 (Adobe Systems, San Jose, CA, USA).

For assay [3], the system named is DR5::GFP (auxin maxima in root tips). Put plainly: DR5::GFP reporter for auxin maxima in root tips. In kind it is in vivo, Arabidopsis thaliana. The following applies: 500 nM peptide, four days, confocal microscopy, n = 20, one-way ANOVA.
Description: (§2) All plants used in this study are of the Arabidopsis thaliana accession Columbia-0 (Col-0) background, including the wild-type, mutant line pepr1-2pepr2-2 (pepr1/2, AT1G73080 and AT1G17750) and transgenic lines expressing WOX5::GFP (AT3G11260) and DR5::GFP [35]. DR5 was created by petforming site-directed mutations in a natural composite auxin response element (AuxRE) found in the soybean GH3 promoter. DR5 consisted of tandem direct repeats of 11 bp (CCTTTTGTCTC)
as §1

The subject of assay [4] is WOX5::GFP (quiescent center). Briefly: WOX5::GFP reporter in quiescent centre of root tips. In kind it is in vivo, Arabidopsis thaliana. The following applies: 500 nM peptide, four days, confocal microscopy, n = 20.
Description: as §2, §1

For assay [5], the system named is ROS burst in Arabidopsis leaves (Col-0). Put plainly: ROS burst, luminol dependent assay in Col-0 leaves. It is filed as cell-based, Arabidopsis thaliana. As to conditions: for concentration at which ROS burst is triggered: Col-0 leaf pieces, luminol L-012/HRP, luminescence recorded 30 min. Here is the method: The measurement of ROS burst was carried out using a luminol dependent assay. Briefly, leaf samples were cut into small pieces and placed in a 96-well plate containing 0.1 mL reaction solution (2 µg/mL horseradish peroxidase, 200 µM luminol L-012). Luminescence signal was immediately measured upon the addition elicitor peptides and recorded for a period of 30 min. The total relative light units (RLUs) measured within a 15 min time was plotted.

Assay [6] deals with primary root growth of Arabidopsis thaliana Col-0 seedlings. In kind it is in vivo. The following applies: n = 20; for concentration at which primary root growth is inhibited: five-day-old Col-0 seedlings transferred to 1/2 MS with peptide, up to 4 days; for inhibitory effect on primary root growth (in words): different concentrations up to 500 nM, 4 days. As to the method: For sterile seedlings, the seeds were first surface-sterilized with 75% ethanol twice. Then, after cold treatment at 4 °C for 2 days, the seeds were germinated on 1/2 Murashige-Skoog (MS) medium supplemented with 0.8% agar and 1% sucrose. For four-week-old plants, the seeds after cold treatment at 4 °C for 2 days were grown in a 1:1 mixture of sand: humus. Both growth environments were carried out in a growth cabinet with 12 h of light, a temperature of 22 °C, and 60% humidity.
as §1

Where a SMILES comes first, the peptide text is derived from it.

For `CC(C)[C@H](NC(=O)[C@H](CCCCN)NC(=O)[C@H](CCC(=O)O)NC(=O)[C@H](CCCCN)NC(=O)CNC(=O)[C@H](CCCNC(=N)N)NC(=O)[C@H](CCC(N)=O)NC(=O)[C@@H](N)CCCCN)C(=O)N[C@@H](CO)C(=O)N[C@@H](CO)C(=O)NCC(=O)N[C@@H](CCCNC(=N)N)C(=O)N1CCC[C@H]1C(=O)NCC(=O)N[C@@H](CCC(N)=O)C(=O)N[C@@H](Cc1c[nH]cn1)C(=O)N[C@@H](CC(N)=O)C(=O)O` [AtPEP1^(7–23)] (H-KQRGKEKVSSGRPGQHN-OH; N-terminus and C-terminus assumed), the “Mean diff, A2 - B2, diameter of rosettes” value in assay [1] is given as 0.1995. For the same compound, in assay [2], the “generation of root hairs / maturation of root tip cells (in words)” value was “more efficient than AtPEP1^(1–23)”. Besides, in assay [3], the “maximum levels of auxin in root tips (DR5::GFP fluorescence) compared with control” value (“maximum levels of auxin … compared with control” below) is “significantly reduced”. Besides, the “WOX5 expression (WOX5::GFP signaling width) compared with control” value (“WOX5 expression … compared with control” for short) in assay [4] is recorded as “increase in WOX5 expression”. In addition, the “concentration at which ROS burst is triggered” value in assay [5] (n = 4) is listed as 10 nM.
With “AtPEP1^(1–23): plant elicitor peptide 1 (PEP1) from Arabidopsis thaliana, composed of 23 amino acids, immune elicitor (ATKVKAKQRGKEKVSSGRPGQHN; Elicitor peptide 1; UniProt Q9LV87 70-92, looked up) [reference compound]”, the “concentration at which primary root growth is inhibited” value in assay [6] is listed as 50 nM. Further, the “concentration that completely inhibited the primary root growth” value in assay [6] (five-day-old Col-0 seedlings, 4 days on peptide medium) turned out to be 500 nM. The “Mean diff, A2 - B2, diameter of rosettes” value in assay [1] came to 0.05081. Further, the “generation of root hairs / maturation of root tip cells (in words)” value in assay [2] is listed as “promoted the generation of root hairs”. The “maximum levels of auxin … compared with control” value in assay [3] was “significantly reduced”. Also, the “WOX5 expression … compared with control” value in assay [4] was “increase in WOX5 expression”. For the same compound, the “total ROS within 15 min compared to the control group” value in assay [5] (10 nM peptide) was “no significant difference”. The “concentration at which ROS burst is triggered” value in assay [5] (n = 4) is listed as 10 nM. For the same compound, in assay [5] (total RLU within 15 min, one-way ANOVA, n = 4), the “concentration at which total ROS within 15 min was significantly higher than the control” value is given as “greater than or equal to 100 nM”.
“AtPEP1^(5–23): truncated peptide of AtPEP1(1–23), residues 5–23 (KAKQRGKEKVSSGRPGQHN; Elicitor peptide 1; UniProt Q9LV87 74-92, looked up, fragment)”: the “Mean diff, A2 - B2, diameter of rosettes” value in assay [1] was found to be 0.1141. Also, the “generation of root hairs / maturation of root tip cells (in words)” value in assay [2] is recorded as “more efficient than AtPEP1^(1–23)”. Moreover, in assay [3], the “maximum levels of auxin … compared with control” value was “significantly reduced”. In addition, the “WOX5 expression … compared with control” value in assay [4] is given as “increase in WOX5 expression”. The “concentration at which ROS burst is triggered” value in assay [5] (n = 4) is reported as 10 nM.
As for “AtPEP1^(9–22): C-terminal truncated peptide created from AtPEP1(9–23) (RGKEKVSSGRPGQH; Elicitor peptide 1; UniProt Q9LV87 78-91, looked up, fragment)”, the “Mean diff, A2 - B2, diameter of rosettes” value in assay [1] is on record as -0.02327. For the same compound, the “generation of root hairs / maturation of root tip cells (in words)” value in assay [2] is “did not promote the generation of root hairs”. Moreover, in assay [3], the “maximum levels of auxin … compared with control” value is reported as “did not show significant changes”. Further, the “concentration at which ROS burst is triggered” value in assay [5] (n = 4) came to 100 nM.
Regarding “AtPEP1^(9–23): truncating eight amino acids from the N-terminus of AtPEP1(1–23) (RGKEKVSSGRPGQHN; Elicitor peptide 1; UniProt Q9LV87 78-92, looked up, fragment)”, the “Mean diff, A2 - B2, diameter of rosettes” value in assay [1] was found to be 0.1045. In assay [2], the “generation of root hairs / maturation of root tip cells (in words)” value is recorded as “more efficient than AtPEP1^(1–23)”. For the same compound, the “maximum levels of auxin … compared with control” value in assay [3] is “significantly reduced”. Besides, the “WOX5 expression … compared with control” value in assay [4] was “increase in WOX5 expression”. Moreover, the “concentration at which ROS burst is triggered” value in assay [5] (n = 4) amounted to 10 nM.
Turning to “AtPEP1^(11–23): truncated peptide of AtPEP1(1–23), residues 11–23 (KEKVSSGRPGQHN; Elicitor peptide 1; UniProt Q9LV87 80-92, looked up, fragment)”, in assay [6], the “inhibitory effect on primary root growth (in words)” value is given as “lower than that of AtPEP1^(1–23)” and the “concentration at which primary root growth is inhibited” value is 5 nM. For the same compound, the “Mean diff, A2 - B2, diameter of rosettes” value in assay [1] was found to be 0.1293. Besides, in assay [2], the “generation of root hairs / maturation of root tip cells (in words)” value is listed as “did not promote the generation of root hairs”. For the same compound, in assay [3], the “maximum levels of auxin … compared with control” value was “significantly reduced”. Moreover, the “WOX5 expression … compared with control” value in assay [4] was “increase in WOX5 expression”. The “concentration at which ROS burst is triggered” value in assay [5] (n = 4) was found to be 10 nM.
“AtPEP1^(13–23): truncating 12 amino acids from the N-terminus of AtPEP1(1–23) (KVSSGRPGQHN; Elicitor peptide 1; UniProt Q9LV87 82-92, looked up, fragment)”: the “inhibitory effect on primary root growth (in words)” value in assay [6] is given as “did not show an obvious inhibitory effect”. Further, the “inhibitory effect on the shoot (in words)” value in assay [1] (Figure S1, Table S7) is reported as “does not inhibit”. Besides, the “Mean diff, A2 - B2, diameter of rosettes” value in assay [1] is reported as 0.03538. Further, the “generation of root hairs / maturation of root tip cells (in words)” value in assay [2] is given as “did not promote the generation of root hairs”. Besides, in assay [3], the “maximum levels of auxin … compared with control” value is “did not show significant changes”. Also, the “concentration at which ROS burst is triggered” value in assay [5] (n = 4) is 10 nM.

The values are drawn from publication PMC11117541, “The Truncated Peptide AtPEP1^(9–23) Has the Same Function as AtPEP1^(1–23) in Inhibiting Primary Root Growth and Triggering of ROS Burst” (Antioxidants, 2024).
